Source: publication PMC6300691, “Enhancement of Heat Stability and Kinetic Parameters of the Maize Endosperm ADP-Glucose Pyrophosphorylase by Mutagenesis of Amino Acids in the Small Subunit With High B Factors” (Frontiers in Plant Science, 2018)
Changes are numbered by the printed parent chain.

Columns and labels:
Type in all cases: biochemical
K403R = K403R (Zea mays, UniProt P55241+Q947C0, K403R); assay: Activation constant from initial rates with varied 3-PGA (0-1 mM) at 2 mM ATP and 2 mM G-1-P, pH 7.4, 15 mM MgCl2, fitted to V = Vmin + Vmax*X/(Ka + X).; parameters: BT2 variant with wild type SH2, E. coli, purified
Chain of K403R (Q947C0 1-475 K403R): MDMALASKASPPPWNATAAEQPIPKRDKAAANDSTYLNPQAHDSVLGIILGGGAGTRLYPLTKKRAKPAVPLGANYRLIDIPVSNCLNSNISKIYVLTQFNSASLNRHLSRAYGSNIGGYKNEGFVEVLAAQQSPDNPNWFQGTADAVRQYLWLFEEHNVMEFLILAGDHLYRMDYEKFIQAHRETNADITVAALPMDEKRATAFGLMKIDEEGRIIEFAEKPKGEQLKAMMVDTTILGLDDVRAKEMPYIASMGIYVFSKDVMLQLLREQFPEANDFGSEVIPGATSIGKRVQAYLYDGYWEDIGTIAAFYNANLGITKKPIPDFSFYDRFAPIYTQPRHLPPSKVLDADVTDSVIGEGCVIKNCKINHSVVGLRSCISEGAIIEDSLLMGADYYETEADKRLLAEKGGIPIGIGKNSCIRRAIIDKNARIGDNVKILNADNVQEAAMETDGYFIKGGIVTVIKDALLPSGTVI
Chain of K403R (P55241 46-516): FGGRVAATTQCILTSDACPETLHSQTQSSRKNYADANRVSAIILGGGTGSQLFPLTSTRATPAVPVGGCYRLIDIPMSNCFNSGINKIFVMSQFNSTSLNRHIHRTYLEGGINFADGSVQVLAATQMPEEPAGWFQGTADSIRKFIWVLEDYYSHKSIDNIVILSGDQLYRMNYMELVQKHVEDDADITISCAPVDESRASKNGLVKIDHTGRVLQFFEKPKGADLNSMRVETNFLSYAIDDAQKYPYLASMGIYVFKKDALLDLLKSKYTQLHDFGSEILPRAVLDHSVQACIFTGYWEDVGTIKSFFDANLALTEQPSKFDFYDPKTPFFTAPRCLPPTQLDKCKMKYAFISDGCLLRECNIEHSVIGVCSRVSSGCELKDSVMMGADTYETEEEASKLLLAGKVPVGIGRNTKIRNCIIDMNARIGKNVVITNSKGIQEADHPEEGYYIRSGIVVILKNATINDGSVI
Excerpt: All reactions were developed as above.

SH2-ISM/BT2-BF = molecular target: T1, SH2-ISM/BT2-BF (Zea mays, UniProt P55241+Q947C0, Q96G/E123G/D161G/R331K/K402R/A443R); assay: Initial-rate assay without 3-PGA, ATP and G-1-P both varied (0.01-10 mM and 0.1-25 mM), global fit to a sequential mechanism.; conditions: read-out: ATP Km (absence of 3-PGA)
T1 construct: SH2-ISM co-expressed with BT2-BF, E. coli, purified
T1 sequence (Q947C0 1-475 E123G/R331K/K402R): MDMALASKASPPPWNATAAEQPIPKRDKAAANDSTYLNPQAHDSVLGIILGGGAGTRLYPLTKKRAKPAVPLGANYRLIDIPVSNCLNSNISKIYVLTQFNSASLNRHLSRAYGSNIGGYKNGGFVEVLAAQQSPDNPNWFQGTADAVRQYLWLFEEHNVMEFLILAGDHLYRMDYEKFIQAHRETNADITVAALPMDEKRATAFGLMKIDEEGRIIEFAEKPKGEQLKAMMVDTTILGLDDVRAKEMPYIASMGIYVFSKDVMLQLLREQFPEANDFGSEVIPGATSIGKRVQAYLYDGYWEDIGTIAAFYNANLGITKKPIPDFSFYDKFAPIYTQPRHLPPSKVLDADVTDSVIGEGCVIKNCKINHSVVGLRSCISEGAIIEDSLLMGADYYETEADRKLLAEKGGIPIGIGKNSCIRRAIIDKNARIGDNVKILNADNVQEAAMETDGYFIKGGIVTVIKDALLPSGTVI
T1 sequence (P55241 46-516 Q96G/D161G/A443R): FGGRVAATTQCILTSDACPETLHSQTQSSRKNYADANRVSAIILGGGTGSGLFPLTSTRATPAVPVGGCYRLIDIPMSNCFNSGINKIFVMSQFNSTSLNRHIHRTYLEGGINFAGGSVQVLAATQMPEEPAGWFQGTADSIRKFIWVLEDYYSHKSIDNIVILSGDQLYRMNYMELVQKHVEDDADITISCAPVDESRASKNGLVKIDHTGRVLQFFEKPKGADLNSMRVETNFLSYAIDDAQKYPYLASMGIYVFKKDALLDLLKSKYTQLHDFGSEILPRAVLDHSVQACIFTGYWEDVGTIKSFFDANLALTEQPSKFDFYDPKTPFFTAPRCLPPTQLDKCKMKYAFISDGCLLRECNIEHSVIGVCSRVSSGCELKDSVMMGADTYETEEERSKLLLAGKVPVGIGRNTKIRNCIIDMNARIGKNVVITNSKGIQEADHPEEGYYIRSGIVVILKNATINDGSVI
Excerpt: (§1) Activity in the absence of the activator 3PGA was examined. While 3PGA is a noted activator for plant AGPase, the mechanism of activation differs for the various AGPases. […] Thus, the term “activation fold” in the literature is merely an activity reported at single fixed substrate concentrations.
(§2) The small subunit mutant, MP, contains the first 198 amino acids of the small subunit of the maize endosperm enzyme and the last 277 amino acids from the potato tuber enzyme resulting in thirty-three amino acid sites that differ from the maize endosperm enzyme ([Cross et al., 2004]).

SH2-ISM [1] = molecular target: T2, SH2-ISM (Zea mays, UniProt P55241+Q947C0, Q96G/D161G/A443R); assay: as above; conditions: read-out: ATP Km (absence of 3-PGA)
T2 construct: SH2-ISM with wild type BT2 (SH2-ISM/BT2-WT), E. coli, purified
T2 sequence (Q947C0 1-475): T1 sequence (Q947C0 1-475 E123G/R331K/K402R) with G123E, K331R, R402K
T2 sequence (P55241 46-516 Q96G/D161G/A443R): T1 sequence (P55241 46-516 Q96G/D161G/A443R)
Excerpt: as §1, §2

MP + SH2-E = system: T3, MP + SH2-E; assay: as above; conditions: read-out: ATP Km (absence of 3-PGA)
T3 construct: chimeric small subunit MP (maize 198 / potato 277 amino acids) with SH2-E
Excerpt: as §1, §2

SH2-E = molecular target: T4, SH2-E (Zea mays, UniProt P55241+Q947C0, N131R/T142F/A160T/Q261S/A396S/V416I/C424V/S444A); assay: as above; conditions: read-out: ATP Km (absence of 3-PGA)
T4 construct: SH2-E with wild type BT2 (SH2-E/BT2-WT), E. coli, purified
T4 sequence (Q947C0 1-475): T1 sequence (Q947C0 1-475 E123G/R331K/K402R) with G123E, K331R, R402K
T4 sequence (P55241 46-516 N131R/T142F/A160T/Q261S/A396S/V416I/C424V/S444A): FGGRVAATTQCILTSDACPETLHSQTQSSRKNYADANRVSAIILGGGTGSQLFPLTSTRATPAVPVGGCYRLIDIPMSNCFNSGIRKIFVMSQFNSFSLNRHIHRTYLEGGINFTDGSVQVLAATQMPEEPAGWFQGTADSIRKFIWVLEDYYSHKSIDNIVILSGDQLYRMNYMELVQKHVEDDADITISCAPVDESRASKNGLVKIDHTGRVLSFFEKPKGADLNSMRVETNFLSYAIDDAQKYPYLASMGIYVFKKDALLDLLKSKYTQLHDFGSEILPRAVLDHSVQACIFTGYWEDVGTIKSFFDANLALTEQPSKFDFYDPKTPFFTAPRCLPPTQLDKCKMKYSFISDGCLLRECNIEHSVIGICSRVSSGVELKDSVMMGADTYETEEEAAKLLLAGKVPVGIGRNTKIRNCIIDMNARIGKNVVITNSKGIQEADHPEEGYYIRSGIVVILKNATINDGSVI
Excerpt: as §1, §2

SH2-ISM [2] = molecular target: T2, SH2-ISM; assay: Pi inhibition study without 3-PGA, ATP varied (0.1-3 mM) at fixed Pi levels (10-30 mM) and sub-saturating G-1-P (1 mM), fit to mixed-type inhibition equations.; conditions: read-out: Km (mM), varied substrate ATP, Pi inhibition in the absence of 3-PGA
Procedure: Pi inhibition was carried out in both the presence and absence of 3-PGA with the Pi and substrate concentrations listed below.
Pi inhibition patterns in the presence and absence of 3PGA were also determined. Pi inhibition patterns were obtained by varying one substrate at several fixed concentrations of Pi, while holding the co-substrate at constant sub-saturating levels.

| SMILES | 3-PGA Ka (activation constant) (K403R) | Km (SH2-ISM/BT2-BF) [µM] | Km (SH2-ISM [1]) [µM] | Km (MP + SH2-E) [µM] | Km (SH2-E) [µM] | Km (SH2-ISM [2]) [mM] |
| --- | --- | --- | --- | --- | --- | --- |
| O=C(O)[C@H](O)COP(=O)(O)O [3-PGA, 3-phosphoglycerate (3-phosphoglyceric acid)] | 0.22 ± 0.057 |  |  |  |  |  |
| Nc1ncnc2c1ncn2[C@@H]1O[C@H](COP(=O)(O)OP(=O)(O)OP(=O)(O)O)[C@@H](O)[C@H]1O [ATP, adenosine 5'-triphosphate] |  | 510 ± 100 | 100 ± 48 | 320 ± 21 | 2500 ± 430 | 0.54 ± 0.057 |
